Consider 18 compounds from patent publication US20250188110A1, “SPECIFIC SMALL MOLECULE INHIBITORS THAT BLOCK KMT9 METHYLTRANSFERASE ACTIVITY AND FUNCTION” (ALBERT-LUDWIGS-UNIVERSITÄT FREIBURG, priority 2021, published 2025).

pIC50, pKd: −log10 of the molar value. Where two headings read alike, the source gives them in different places. Bounds are passed on as bounds.

The target of assay [1] is T1, KMT9 (Homo sapiens, UniProt Q9Y5N5).
T1 sequence (Q9Y5N5 1-214): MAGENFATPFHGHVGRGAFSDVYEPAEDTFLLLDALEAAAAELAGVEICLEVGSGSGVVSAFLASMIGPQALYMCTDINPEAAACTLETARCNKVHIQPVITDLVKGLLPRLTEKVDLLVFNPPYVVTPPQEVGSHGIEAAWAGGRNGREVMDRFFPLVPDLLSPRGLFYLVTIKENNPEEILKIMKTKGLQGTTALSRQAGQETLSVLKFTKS
T1 sequence (Q9UI30 1-120 isoform Q9UI30-2 partner): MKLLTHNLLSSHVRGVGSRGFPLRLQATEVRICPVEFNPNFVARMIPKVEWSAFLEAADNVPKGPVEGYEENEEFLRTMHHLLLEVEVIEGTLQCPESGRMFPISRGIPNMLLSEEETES
The experiment in a line: KMT9 thermal shift assay (SyproOrange). The assay is classed as binding. Summed up: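 Recombinant KMT9 was incubated with compound and SyproOrange at 25° C in 50 mM BTP pH 8.5, 1 mM MgCl2, 1 mM DTT. It was then heated from 20° C to 95° C at 1° C per 15 s with fluorescence read each step. Tm came from a Boltzmann sigmoidal fit; ΔTm relative to DMSO control, binned in 5 K ranges.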

Assay [2] addresses T1, KMT9. The assay is described as follows: Microscale thermophoresis (MST) KMT9 binding. The method in brief: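 His-tagged KMT9 (20 nM), RED-Tris-NTA labelled, titrated with varying compound concentrations in 25 mM HEPES pH 7.5, 100 mM NaCl, 1 mM DTT, 0.05% Tween. MST at 40% MST and 100% LED power, Nano-RED excitation; Kd binned A ≤10 nM, B 10–100, C 100–1000, D >1000 nM.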
Background: Microscale thermophoresis detects binding through changes in fluorescence in a small temperature gradient.

In assay [3] the target is T1, KMT9. The experiment in a line: KMT9 methyltransferase inhibition assay, MTaseGlo luminescence (from entry 155). The assay is classed as biochemical. To be noted: 100 nM KMT9, 5 μM ETF1, 1 μM SAM. The method in brief: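 KMT9 (100 nM final) pre-incubated with inhibitor for 15 min at room temperature, then reacted with 5 μM ETF1 and 1 μM SAM for 2 h at 30° C. at 2% DMSO final. MTaseGlo luminescence read after 60 min detection; IC50 reported in four potency bins.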

Where [4] appears, read: 500 µM compound, 2 μM KMT9, read-out: Thermal shift (ΔTm).
[5] abbreviates: His-tag labelled KMT9 20 nM, read-out: MST (Kd).
Setting [6] is: MTaseGlo procedure (entries from 155), read-out: Inhibition (IC50).
The mark [7] stands for this setting: ΔTm class, 500 uM compound, 2 μM KMT9, read-out: Thermal shift.
[8] abbreviates: His-tag labelled KMT9 20 nM, Kd class, read-out: MST.
The mark [9] stands for this setting: IC50 class, MTaseGlo procedure (entries from 155 on), read-out: Inhibition.
Where [10] appears, read: ΔTm, 500 µM compound, 2 μM KMT9, 5X SO, read-out: Thermal shift.
Where [11] appears, read: microscale thermophoresis, His-tag labelled KMT9 (20 nM), read-out: MST.
[12] abbreviates: from entry 155: MTaseGlo assay, read-out: Inhibition.

On to `COc1cccc([C@H]2C[C@@H](n3cc(-c4ccn(C)n4)c4c(N)nc(Cl)nc43)[C@H](O)[C@@H]2O)c1` [Compound 671, (1R,2S,3R,5R)-3-(4-amino-2-chloro-5-(1-methyl-1H-pyrazol-3-yl)-7H-pyrrolo[2,3-d]pyrimidin-7-yl)-5-(3-methoxyphenyl)cyclopentane-1,2-diol], for which the ΔTm at 500 µM in assay [1] (setting [4]) lay in the range of 10 to 15 °C. Also, the pKd in assay [2] (setting [5]) is 7.00 to 8.00. Further, the pIC50 in assay [3] (setting [6]) is 5.00 to 6.00.
On the same counts, the results for `CC1CNCCC1[C@H]1C[C@@H](n2cc(-c3nc(Cc4ccccc4)cs3)c3c(N)ncnc32)[C@H](O)[C@@H]1O` (stereo partly drawn) [Compound 595, (1R,2S,3R,5R)-3-[4-amino-5-(4-benzyl-1,3-thiazol-2-yl)pyrrolo[2,3-d]pyrimidin-7-yl]-5-(3-methylpiperidin-4-yl)cyclopentane-1,2-diol] are 10 to 15 °C, 6.00 to 7.00 and 5.00 to 6.00.
For the compound `O[C@@H]1[C@H](O)[C@@H](C2=CCCN(CC(F)(F)F)C2)C[C@H]1n1cc(-c2nc(Cc3ccccc3)cs2)c2cnc(Cl)nc21` [Compound 651, (1R,2S,3R,5R)-3-[5-(4-Benzyl-1,3-thiazol-2-yl)-2-chloropyrrolo[2,3-d]pyrimidin-7-yl]-5-[1-(2,2,2-trifluoroethyl)-5,6-dihydro-2H-pyridin-3-yl]cyclopentane-1,2-diol], the ΔTm at 500 µM in assay [1] (setting [7]) is at most 10 °C. Also, the pKd in assay [2] (setting [8]) is below 6.00. The pIC50 in assay [3] (setting [9]) was below 5.00.
On to `Nc1ncnc2c1c(-c1nc(Cc3ccccc3)cs1)cn2[C@@H]1C[C@H]([C@@H]2CCCNC2)[C@@H](O)[C@H]1O` (single isomer, unassigned) [Compound 593R], for which the ΔTm at 500 µM in assay [1] (setting [10]) was in the range of 15 to 20 °C. Further, the pKd in assay [2] (setting [11]) is 6.00 to 7.00. For the same compound, the pIC50 in assay [3] (setting [12]) is 5.00 to 6.00.
On to `O[C@@H]1[C@@H](CNCCCNCCc2ccccc2)C[C@@H](n2cc(-c3nc(Cc4ccccc4)cs3)c3cncnc32)[C@@H]1O` [Compound 613, (1R,2S,3R,5R)-3-(5-(4-benzylthiazol-2-yl)-7H-pyrrolo[2,3-d]pyrimidin-7-yl)-5-(((3-(phenethylamino)propyl)amino)methyl)cyclopentane-1,2-diol], for which the ΔTm at 500 µM in assay [1] (setting [10]) lay in the range of 10 to 15 °C. Further, the pKd in assay [2] (setting [11]) is below 6.00. In addition, the pIC50 in assay [3] (setting [12]) is 5.00 to 6.00.
As for `CC(=O)CN1CCC([C@H]2C[C@@H](n3cc(-c4nc(Cc5ccccc5)cs4)c4c(N)nc(Cl)nc43)[C@H](O)[C@@H]2O)CC1` [Compound 510, 1-{4-[(1R,2R,3S,4R)-4-[4-amino-5-(4-benzyl-1,3-thiazol-2-yl)-2-chloropyrrolo[2,3-d]pyrimidin-7-yl]-2,3-dihydroxycyclopentyl]piperidin-1-yl}propan-2-one], in assay [1] (setting [4]), the ΔTm at 500 µM was 15 to 20 °C. For the same compound, the pKd in assay [2] (setting [5]) is 7.00 to 8.00. For the same compound, in assay [3] (setting [6]), the pIC50 was 6.00 to 7.00.
As to `O[C@@H]1[C@@H](CNCCCNCCc2ccccc2)C[C@@H](n2cc3c4c(ncnc42)NCCCC3)[C@@H]1O` [Compound 631, (1S,2R,3R,5R)-3-(((3-(phenethylamino)propyl)amino)methyl)-5-(7,8,9,10-tetrahydro-2,3,5,6-tetraazacycloocta [cd]inden-2 (6H)-yl)cyclopentane-1,2-diol], the ΔTm at 500 µM in assay [1] (setting [10]) fell in the range of 10 to 15 °C. The pKd in assay [2] (setting [11]) is 7.00 to 8.00. In assay [3] (setting [12]), the pIC50 is 5.00 to 6.00.
`Nc1nc(Cl)nc2c1c(-c1ccccc1)cn2[C@@H]1C[C@H](CNCCCNCCc2cccc(Oc3ccccc3)c2)[C@@H](O)[C@H]1O` [Compound 564, (1R,2S,3R,5R)-3-(4-amino-2-chloro-5-phenyl-7//pyrrolo[2,3-d]pyrimidin-7-yl)-5-(((3-((3-phenoxyphenethyl)amino)propyl)amino)methyl)cyclopentane-1,2-diol]: the ΔTm at 500 µM in assay [1] (setting [4]) is above 20 °C. Also, the pKd in assay [2] (setting [5]) was 7.00 to 8.00. In addition, the pIC50 in assay [3] (setting [6]) was 5.00 to 6.00.
`CN1CCC([C@H]2C[C@@H](n3cc(-c4nc(Cc5ccccc5)cs4)c4cnc(Cl)nc43)[C@H](O)[C@@H]2O)CC1` [Compound 496, (1R,2S,3R,5R)-3-(5-(4-benzylthiazol-2-yl)-2-chloro-7H-pyrrolo[2,3-d]pyrimidin-7-yl)-5-(1-methylpiperidin-4-yl)cyclopentane-1,2-diol]: the ΔTm at 500 µM in assay [1] (setting [7]) lay within 15 to 20 °C. For the same compound, in assay [2] (setting [8]), the pKd is 7.00 to 8.00. Moreover, in assay [3] (setting [9]), the pIC50 was 5.00 to 6.00.
As for `O[C@@H]1[C@H](O)[C@@H](C2=CCCN(CC3CC3)C2)C[C@H]1n1cc(-c2nc(Cc3ccccc3)cs2)c2cnc(Cl)nc21` [Compound 586, (1R,2S,3R,5R)-3-[5-(4-Benzyl-1,3-thiazol-2-yl)-2-chloropyrrolo[2,3-d]pyrimidin-7-yl]-5-[1-(cyclopropylmethyl)-5,6-dihydro-2H-pyridin-3-yl]cyclopentane-1,2-diol], the ΔTm at 500 µM in assay [1] (setting [7]) was at most 10 °C. Further, the pKd in assay [2] (setting [8]) was 6.00 to 7.00. The pIC50 in assay [3] (setting [9]) is 5.00 to 6.00.
For `Nc1ncnc2c1ccn2[C@@H]1C[C@H](c2cccc(-c3cn[nH]c3)c2)[C@@H](O)[C@H]1O` [Compound 652, (15,2R,3R,5R)-3-(3-(1H-pyrazol-4-yl)phenyl)-5-(4-amino-7H-pyrrolo[2,3-d]pyrimidin-7-yl)cyclopentane-1,2-diol], the ΔTm at 500 µM in assay [1] (setting [7]) was at most 10 °C. Besides, the pKd in assay [2] (setting [8]) was below 6.00. Also, the pIC50 in assay [3] (setting [9]) was below 5.00.
Consider `Nc1nc(Cl)nc2c1c(-c1nccs1)cn2[C@@H]1C[C@H](C2CCN(CCc3ccncc3)CC2)[C@@H](O)[C@H]1O` [Compound 514, (1R,2S,3R,5R)-3-[4-amino-2-chloro-5-(1,3-thiazol-2-yl)pyrrolo[2,3-d]pyrimidin-7-yl]-5-{1-[2-(pyridin-4-yl)ethyl]piperidin-4-yl}cyclopentane-1,2-diol], for which the ΔTm at 500 µM in assay [1] (setting [4]) lay within 15 to 20 °C. Further, the pKd in assay [2] (setting [5]) was at least 8.00. Besides, in assay [3] (setting [6]), the pIC50 is 6.00 to 7.00.
Take `O[C@@H]1[C@@H](CN(CCCNCCc2ccccc2)c2cn[nH]c2)C[C@@H](n2cc(-c3cccs3)c3cnc(Cl)nc32)[C@@H]1O` [Compound 641, (1R,2S,3R,5R)-3-(2-Chloro-5-(thiophen-2-yl)-7H-pyrrolo[2,3-d]pyrimidin-7-yl)-5-(((3-(phenethylamino)propyl)(1H-pyrazol-4-yl)amino)methyl)cyclopentane-1,2-diol]: in assay [1] (setting [7]), the ΔTm at 500 µM fell in the range of 15 to 20 °C. Further, the pKd in assay [2] (setting [8]) is at least 8.00. Moreover, the pIC50 in assay [3] (setting [9]) is 6.00 to 7.00.
Take `C=CCN1CCC([C@H]2C[C@@H](n3cc(-c4nc(Cc5ccccc5)cs4)c4c(N)nc(Cl)nc43)[C@H](O)[C@@H]2O)CC1` [Compound 509, (1R,2S,3R,5R)-3-[4-amino-5-(4-benzyl-1,3-thiazol-2-yl)-2-chloropyrrolo[2,3-d]pyrimidin-7-yl]-5-[1-(prop-2-en-1-yl)piperidin-4-yl]cyclopentane-1,2-diol]: the ΔTm at 500 µM in assay [1] (setting [4]) lay in the range of 15 to 20 °C. Further, the pKd in assay [2] (setting [5]) is at least 8.00. In addition, the pIC50 in assay [3] (setting [6]) was 5.00 to 6.00.
As to `Nc1ncnc2c1ccn2[C@@H]1C[C@H](c2ccn[nH]2)[C@@H](O)[C@H]1O` [Compound 391, (1R,2S,3R,5R)-3-(4-amino-7H-pyrrolo[2,3-d]pyrimidin-7-yl)-5-(1H-pyrazol-5-yl) cyclopentane-1,2-diol], the ΔTm at 500 µM in assay [1] (setting [7]) is at most 10 °C. The pKd in assay [2] (setting [8]) is below 6.00. The pIC50 in assay [3] (setting [9]) is below 5.00.
`Nc1cccc([C@H]2C[C@@H](n3ccc4c(N)ncnc43)[C@H](O)[C@@H]2O)c1` [Compound 410, (1R,2S,3R,5R)-3-(4-amino-7H-pyrrolo[2,3-d]pyrimidin-7-yl)-5-(3-aminophenyl) cyclopentane-1,2-diol]: the ΔTm at 500 µM in assay [1] (setting [4]) was at most 10 °C. Also, the pKd in assay [2] (setting [5]) was below 6.00. Further, the pIC50 in assay [3] (setting [6]) was below 5.00.
In the case of `Nc1nc(Cl)nc2c1c(-c1nc(Cc3ccccc3)cs1)cn2[C@@H]1C[C@H](C2CCN(CC3CC3)CC2)[C@@H](O)[C@H]1O` [Compound 507, (1R,2S,3R,5R)-3-[4-amino-5-(4-benzyl-1,3-thiazol-2-yl)-2-chloropyrrolo[2,3-d]pyrimidin-7-yl]-5-[1-(cyclopropylmethyl)piperidin-4-yl]cyclopentane-1,2-diol], the ΔTm at 500 µM in assay [1] (setting [7]) is above 20 °C. The pKd in assay [2] (setting [8]) is at least 8.00. The pIC50 in assay [3] (setting [9]) was 6.00 to 7.00.
Regarding `Nc1ncnc2c1ccn2[C@@H]1C[C@H](c2cccs2)[C@@H](O)[C@H]1O` [Compound 390, (1R,2S,3R,5S)-3-(4-amino-7H-pyrrolo[2,3-a]pyrimidin-7-yl)-5-(thiophen-2-yl) cyclopentane-1,2-diol], in assay [1] (setting [10]), the ΔTm at 500 µM is at most 10 °C. For the same compound, the pKd in assay [2] (setting [11]) is below 6.00. Further, the pIC50 in assay [3] (setting [12]) was below 5.00.
